Entries after “also recorded” stand apart in the source; their conditions may differ.
Columns and labels:
[1] = molecular target: T1, hLAIR-1-IgG (Homo sapiens, UniProt Q6GTX8); experiment: BIAcore binding of hLAIR-1-IgG to immobilized triple-helical peptides; settings: hLAIR-1-IgG 780 nM, 5 μl/min, ~250 RU peptide
T1 construct: chimeric proteins of the extracellular domain of hLAIR-1 or LAIR-2 fused to the Fc region of human IgG1 were prepared; made in house
T1 sequence (Q6GTX8 22-165 limits assumed): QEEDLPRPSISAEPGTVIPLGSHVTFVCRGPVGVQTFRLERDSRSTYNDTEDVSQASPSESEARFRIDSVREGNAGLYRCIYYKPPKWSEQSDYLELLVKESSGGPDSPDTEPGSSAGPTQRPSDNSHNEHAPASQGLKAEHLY
Description: (§1) Surface plasmon resonance (BIAcore) binding studies were performed using a BIAcore2000 system (BIAcore AB, Uppsala, Sweden). Approximately 2000-3000 response units (RU) of acid-soluble human collagen type I or III (Sigma) were immobilized on a CM5 biosensor chip using the amine coupling kit as instructed by the supplier. Immobilized triple-helical peptides composed of GCO(GPO)10GCOG-NH2 ((GPO)10, also known as collagen-related peptide, CRP^6) and GCP(GPP)10GCPG-NH2 ((GPP)10) were described previously^6. Approximately 250 RU (GPP)10 or (GPO)10 peptide trimers were immobilized using a cysteine coupling kit according manufacturers instructions. Analysis was performed in buffer (125 mM NaCl, 2.5 mM CaCl2, 0.005% (v/v) Tween 20, and 25 mM Hepes, (pH 7.4)) at 25° C. at a flow rate of 20 μl/min for collagen I and III interaction-studies and 5 μl/min for the immobilized peptides. […] Increasing concentrations of hLAIR-1-IgG were injected and allowed to reach an equilibrium plateau for 10 minutes. The delay between injections was 13 min, during which time the biosensor chip was flushed with buffer. In case of peptide-binding studies, biosensor chips were regenerated by injection of 0.1 M H3PO4 (2 min, 5 μl/min).

[2] = molecular target: T2, LAIR-2 fusion protein (Homo sapiens, UniProt Q6ISS4); experiment: BIAcore binding of LAIR-2 fusion protein to immobilized trimeric peptides; settings: 5 μl/min, ~250 RU peptide
T2 construct: chimeric proteins of the extracellular domain of hLAIR-1 or LAIR-2 fused to the Fc region of human IgG1 were prepared; made in house
T2 sequence (Q6ISS4 22-152): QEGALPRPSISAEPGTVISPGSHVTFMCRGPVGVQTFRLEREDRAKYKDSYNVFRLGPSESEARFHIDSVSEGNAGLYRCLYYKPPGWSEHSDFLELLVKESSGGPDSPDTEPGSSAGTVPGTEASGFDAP
Description: as §1
The surface plasmon resonance binding studies were performed as described before(15). LAIR-2-IgG dimer concentration was calculated based on a theoretical mass of 82.5 kDa.

[3] = tested on: parental 2B4 NFAT-GFP reporter T cell hybridoma cells; experiment: Inhibition of CD3 signaling in parental (untransfected) 2B4 NFAT-GFP reporter cells; format: cell-based, Mouse; settings: for inhibition of CD3-induced activation of parental reporter cells: high peptide concentrations
[4] = molecular target: T3, hLAIR-1 (Homo sapiens, UniProt Q6GTX8); experiment: FcεRI-induced degranulation assay, hLAIR-1 transfected RBL-2H3 cells; format: cell-based; parameters: expressed in transfected cells; settings: plate-bound together with TNP-BSA 0.8 μg/ml
T3 sequence (Q6GTX8 22-287): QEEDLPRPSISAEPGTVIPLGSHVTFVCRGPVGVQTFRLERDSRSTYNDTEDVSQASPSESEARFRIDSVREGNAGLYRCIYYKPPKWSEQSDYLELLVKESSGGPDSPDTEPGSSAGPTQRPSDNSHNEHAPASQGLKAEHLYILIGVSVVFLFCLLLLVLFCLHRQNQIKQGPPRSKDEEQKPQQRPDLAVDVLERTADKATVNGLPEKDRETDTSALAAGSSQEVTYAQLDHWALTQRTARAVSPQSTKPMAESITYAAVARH
Description: 96-well MAXIsorp flat-bottom plates (Nunc) were coated overnight at 4° C. with BSA, or TNP conjugated to BSA (0.8 μg/ml) and indicated amounts of synthetic trimeric peptides (100 μl/well, 2 mM acetic acid in PBS). Meanwhile, untransfected or hLAIR-1a transfected RBL-2H3 (23) cells were sensitized with IgE anti-TNP mAbs at 4° C. for 30 minutes and subsequently washed for three times in medium (AIM-V; Gibco-BRL). After washings of the plates, 5.0×10^5 cells in 70 μl medium were added to each well, and plates were incubated at 37° C. for 1 hour. Subsequently, cultures were transferred to PCR tubes, centrifuged and the supernatants were assayed for β-glucuronidase activity as described (23).

[5] = molecular target: T3, hLAIR-1; experiment: Inhibition of CD3 signaling in hLAIR-1a transfected 2B4 NFAT-GFP reporter cells; format: cell-based; parameters: expressed in transfected cells; host or cells: Mouse 2B4 NFAT-GFP reporter T cell hybridoma; settings: for inhibition of CD3-induced activation of hLAIR-1 transfected reporter cells (in words): plate-bound peptide 10, 3.3, 1.1, 0.37 μg/ml; for inhibitory capacity at low peptide concentration (in words): 1.1 μg/ml; for inhibition of CD3-induced activation of hLAIR-1 transfected reporter cells: low peptide concentration 1.1 μg/ml
Description: For detection of inhibition of mouse CD3 signaling: 2B4 T cell hybridoma cells stably transduced with an NFAT-GFP reporter and hLAIR-1a were generated. 1.25 μg/ml anti-mouse CD3 (PharMingen, San Diego, Calif.) was coated overnight at 4° C. in 96-well MAXIsorp flat-bottom plates (Nunc) together with an indicated amount of synthetic trimeric peptides in a total volume of 100 μl/well. The next day, plates were washed and 200 μl of 2.5×10^5 reporter cells/ml in medium were added to each well, and plates were incubated at 37° C. for 22 hrs and then analyzed for GFP expression by flow cytometry on a FACSCalibur (BD Biosciences). Typically, ˜90 percent of the reporters expressed GFP upon CD3 stimulation.

[6] = molecular target: T4, hLAIR-1-CD3ζ chimera (Homo sapiens, UniProt Q6GTX8); experiment: 2B4 NFAT-GFP reporter cell assay, hLAIR-1-CD3ζ chimera; format: cell-based; settings: for most potent hLAIR-1 activators in order of strength: order: III-30, II-56, II-30, III-38, II-42, III-51; for functional triggering of hLAIR-1-CD3ζ (GFP expression, in words): plate-bound ligand
T4 construct: a chimeric protein consisting of the extracellular domain of hLAIR-1 fused to the transmembrane and intracellular domain of CD3ζ; expressed in transfected cells; host or cells: Mouse 2B4 NFAT-GFP reporter T cell hybridoma, pMX puro retroviral vector
T4 sequence (Q6GTX8 22-165 limits assumed): T1 sequence (Q6GTX8 22-165 limits assumed)
Description: For detection of LAIR-1 ligands: 2B4 T cell hybridoma cells stably transduced with an NFAT-GFP reporter and hLAIR-1-CD3ζ were analyzed as described (11).
2B4 T cell hybridoma cells were stably transduced with an NFAT-GFP reporter construct(40) and hLAIR-1-CD3ζ(15) and analyzed as described(15, 40).

| Substance | inhibition of FcεRI-induced degranulation (β-glucuronidase release) [4] | inhibition of CD3-induced activation of hLAIR-1 transfected reporter cells (in words) [5] | most potent hLAIR-1 activators in order of strength [6] | other results |
| --- | --- | --- | --- | --- |
| GCP(GPP)10GCPG-NH2 [reference compound] | not | did not inhibit | – | binding of hLAIR-1-IgG to immobilized peptide [1]: did not; interaction of LAIR-2 with immobilized trimeric peptide [2]: not; inhibition of CD3-induced activation of parental reporter cells (in words) [3]: did not inhibit |
| GPC(GPP)5-GAOGLRGGAGPOGPEGGKGAAGPOGPO-(GPP)5GPC-NH2 [III-30] | potent inhibitors | efficiently inhibiting | most potent hLAIR-1 activators | inhibition of CD3-induced activation of parental reporter cells [3]: ~30%; inhibitory capacity at low peptide concentration (in words) [5]: full inhibitory capacity |
| GPC(GPP)5-GEGGPOGVAGPOGGSGPAGPOGPQGVK-(GPP)5GPC-NH2 [III-38] | – | efficiently inhibiting | most potent hLAIR-1 activators | inhibition of CD3-induced activation of hLAIR-1 transfected reporter cells [5]: ~60% |
| GPC(GPP)5-GMOGERGGLGSOGPKGDKGEOGGOGAD-(GPP)5GPC-NH2 [III-32] | – | – | – | functional triggering of hLAIR-1-CD3ζ (GFP expression, in words) [6]: potent LAIR-1 binders and activators |
| GPC(GPP)5-GPAGEOGREGSOGADGPOGRDGAAGVK-(GPP)5GPC-NH2 [II-47] | – | did not induce inhibition | – | – |
| GPC(GPP)5-GPAGPAGAOGPAGSRGAOGPQGPRGDK-(GPP)5GPC-NH2 [III-51] | – | – | most potent hLAIR-1 activators | functional triggering of hLAIR-1-CD3ζ (GFP expression, in words) [6]: potent LAIR-1 binders and activators |
| GPC(GPP)5-GPRGRSGETGPAGPOGNOGPOGPOGPO-(GPP)5GPC-NH2 [II-56] | potent inhibitors | efficiently inhibiting | most potent hLAIR-1 activators | inhibition of CD3-induced activation of parental reporter cells [3]: ~30%; inhibitory capacity at low peptide concentration (in words) [5]: full inhibitory capacity; also recorded: full inhibitory potential |
| GPC(GPP)5-GRAGEOGLQGPAGPOGEKGEOGDDGPS-(GPP)5GPC-NH2 [II-42] | – | – | most potent hLAIR-1 activators | – |
| GPC(GPP)5-GTOGTDGPKGASGPAGPOGAQGPOGLQ-(GPP)5GPC-NH2 [II-30] | – | efficiently inhibiting | most potent hLAIR-1 activators | inhibition of CD3-induced activation of hLAIR-1 transfected reporter cells [5]: ~60% |
